#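 Each compound was tested at five concentrations against cells in 96-well plates for 48 hours. Abbreviation: GI50, concentration required for 50% inhibition of growth.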 Calls of active or inactive are those of the source. Rule as the data show it: active = GI50 up to about 1.1 µM and inactive = higher.
# How the values were obtained:
# Assay in all cases: inhibition of tumour cell growth, NCI panel, 48 h
# K562 = system: K562
# PC-3 = system: PC-3
# NCI-H460 = system: NCI-H460
# M14 = system: M14
# T47D = system: T47D
# SK-MEL-28 = system: SK-MEL-28
# MCF7 = system: MCF7
# NCI-H23 = system: NCI-H23
# MOLT-4 = system: MOLT-4
# MDA-N = system: MDA-N
# Hs-578T = system: Hs-578T
# NCI-H522 = system: NCI-H522
# MDA-MB-435 = system: MDA-MB-435
# UACC-257 = system: UACC-257
# CCRF-CEM = system: CCRF-CEM
# UO-31 = system: UO-31
# HOP-92 = system: HOP-92
# MDA-MB-231 = system: MDA-MB-231
# A498 = system: A498
# HCC 2998 = system: HCC 2998
# NCI/ADR-RES = system: NCI/ADR-RES
# HCT-116 = system: HCT-116
# U-251 = system: U-251
# COLO 205 = system: COLO 205
# SW-620 = system: SW-620
# DU-145 = system: DU-145
# OVCAR-8 = system: OVCAR-8
# SR = system: SR
# SNB-75 = system: SNB-75
# HT-29 = system: HT-29
# KM12 = system: KM12
# SNB-19 = system: SNB-19
# LOX IMVI = system: LOX IMVI
# OVCAR-3 = system: OVCAR-3
# OVCAR-4 = system: OVCAR-4
# SF-268 = system: SF-268
# A549 = system: A549
# SF-295 = system: SF-295
# NCI-H226 = system: NCI-H226
# RXF 393 = system: RXF 393
# SK-OV-3 = system: SK-OV-3
# TK-10 = system: TK-10
# ACHN = system: ACHN
# SN12C = system: SN12C
# HCT-15 = system: HCT-15
# SK-MEL-5 = system: SK-MEL-5
# BT-549 = system: BT-549
# OVCAR-5 = system: OVCAR-5
# CAKI-1 = system: CAKI-1
# UACC-62 = system: UACC-62
# EKVX = system: EKVX
# HOP-62 = system: HOP-62
# RPMI-8226 = system: RPMI-8226
# Malme-3M = system: Malme-3M
# SK-MEL-2 = system: SK-MEL-2
# IGROV-1 = system: IGROV-1
# 786-0 = system: 786-0
# HL-60 = system: HL-60
# SF-539 = system: SF-539
structure (smiles),measurement,setting,value
C1CCC(OC2CSC2)OC1 (centres undefined),GI50,K562,> 100 µM (inactive)
same,GI50,PC-3,> 100 µM (inactive)
same,GI50,NCI-H460,> 100 µM (inactive)
same,GI50,M14,> 100 µM (inactive)
same,GI50,T47D,> 100 µM (inactive)
same,GI50,SK-MEL-28,> 100 µM (inactive)
same,GI50,MCF7,> 100 µM (inactive)
same,GI50,NCI-H23,> 100 µM (inactive)
same,GI50,MOLT-4,> 100 µM (inactive)
same,GI50,MDA-N,> 100 µM (inactive)
same,GI50,Hs-578T,> 100 µM (inactive)
same,GI50,NCI-H522,> 100 µM (inactive)
same,GI50,MDA-MB-435,> 100 µM (inactive)
same,GI50,UACC-257,> 100 µM (inactive)
same,GI50,CCRF-CEM,> 100 µM (inactive)
same,GI50,UO-31,> 100 µM (inactive)
same,GI50,HOP-92,> 100 µM (inactive)
same,GI50,MDA-MB-231,> 100 µM (inactive)
same,GI50,A498,> 100 µM (inactive)
same,GI50,HCC 2998,> 100 µM (inactive)
same,GI50,NCI/ADR-RES,> 100 µM (inactive)
same,GI50,HCT-116,> 100 µM (inactive)
same,GI50,U-251,> 100 µM (inactive)
same,GI50,COLO 205,> 100 µM (inactive)
same,GI50,SW-620,> 100 µM (inactive)
same,GI50,DU-145,> 100 µM (inactive)
same,GI50,OVCAR-8,> 100 µM (inactive)
same,GI50,SR,> 100 µM (inactive)
same,GI50,SNB-75,> 100 µM (inactive)
same,GI50,HT-29,> 100 µM (inactive)
same,GI50,KM12,> 100 µM (inactive)
same,GI50,SNB-19,> 100 µM (inactive)
same,GI50,LOX IMVI,> 100 µM (inactive)
same,GI50,OVCAR-3,> 100 µM (inactive)
same,GI50,OVCAR-4,> 100 µM (inactive)
same,GI50,SF-268,> 100 µM (inactive)
same,GI50,A549,> 100 µM (inactive)
same,GI50,SF-295,> 100 µM (inactive)
same,GI50,NCI-H226,> 100 µM (inactive)
same,GI50,RXF 393,> 100 µM (inactive)
same,GI50,SK-OV-3,> 100 µM (inactive)
same,GI50,TK-10,> 100 µM (inactive)
same,GI50,ACHN,> 100 µM (inactive)
same,GI50,SN12C,> 100 µM (inactive)
same,GI50,HCT-15,> 100 µM
same,GI50,SK-MEL-5,> 100 µM (inactive)
NNC(=O)c1c(-c2cccnc2)cnc2ccccc12,GI50,K562,> 100 µM (inactive)
same,GI50,PC-3,> 100 µM (inactive)
same,GI50,NCI-H460,> 100 µM (inactive)
same,GI50,M14,> 100 µM (inactive)
same,GI50,SK-MEL-28,> 100 µM (inactive)
same,GI50,MCF7,> 100 µM (inactive)
same,GI50,NCI-H23,> 100 µM (inactive)
same,GI50,MOLT-4,> 100 µM (inactive)
same,GI50,MDA-N,> 100 µM (inactive)
same,GI50,BT-549,> 100 µM (inactive)
same,GI50,OVCAR-5,> 100 µM (inactive)
same,GI50,NCI-H522,> 100 µM (inactive)
same,GI50,CAKI-1,> 100 µM (inactive)
same,GI50,UACC-257,> 100 µM (inactive)
same,GI50,CCRF-CEM,> 100 µM (inactive)
same,GI50,UO-31,> 100 µM (inactive)
same,GI50,UACC-62,> 100 µM (inactive)
same,GI50,HOP-92,> 100 µM (inactive)
same,GI50,EKVX,> 100 µM (inactive)
same,GI50,HCC 2998,> 100 µM (inactive)
same,GI50,HOP-62,> 100 µM (inactive)
same,GI50,NCI/ADR-RES,> 100 µM (inactive)
same,GI50,RPMI-8226,> 100 µM (inactive)
same,GI50,Malme-3M,> 100 µM (inactive)
same,GI50,SK-MEL-2,> 100 µM (inactive)
same,GI50,HCT-116,> 100 µM (inactive)
same,GI50,U-251,> 100 µM (inactive)
same,GI50,COLO 205,> 100 µM (inactive)
same,GI50,SW-620,> 100 µM (inactive)
same,GI50,DU-145,> 100 µM (inactive)
same,GI50,IGROV-1,> 100 µM (inactive)
same,GI50,OVCAR-8,> 100 µM (inactive)
same,GI50,SR,> 100 µM (inactive)
same,GI50,SNB-75,45.6 µM (inactive)
same,GI50,HT-29,> 100 µM (inactive)
same,GI50,KM12,> 100 µM (inactive)
same,GI50,SNB-19,> 100 µM (inactive)
same,GI50,786-0,> 100 µM (inactive)
same,GI50,OVCAR-3,> 100 µM (inactive)
same,GI50,OVCAR-4,> 100 µM (inactive)
same,GI50,SF-268,> 100 µM (inactive)
same,GI50,A549,> 100 µM (inactive)
same,GI50,SF-295,> 100 µM (inactive)
same,GI50,NCI-H226,> 100 µM (inactive)
same,GI50,HL-60,> 100 µM (inactive)
same,GI50,RXF 393,> 100 µM (inactive)
same,GI50,SF-539,> 100 µM (inactive)
same,GI50,SK-OV-3,4.02 µM (inactive)
same,GI50,TK-10,> 100 µM (inactive)
same,GI50,ACHN,> 100 µM (inactive)
same,GI50,SN12C,> 100 µM (inactive)
same,GI50,HCT-15,> 100 µM
same,GI50,SK-MEL-5,> 100 µM (inactive)
